Test results reported in US11154559B2, “Methods and compositions of bile acids” (The General Hospital Corporation, priority 2011, dated 2021).

Assay: Effect of subcutaneous TUDCA on weight gain and food intake in mice on a high-fat diet
Assay type: in vivo, C57BL/6J mice
Conditions: 500 mg/kg s.c. twice a week vs placebo
Procedure: To examine the effect of circulating bile acids on body weight gain, C57BL/6J mice on a high-fat diet (HFD) were given subcutaneous injections of tauroursodeoxycholic acid (TUDCA, 500 mg/kg) or placebo for 10 weeks (N=6 per group). TUDCA was prepared daily in 0.15 M NaHCO3 (pH adjusted to 7.4). TUDCA or placebo (0.15 M NaHCO3, pH 7.4) was administered twice a week (Monday/Thursday) as 10 μl solution/g of body weight. Body weight (BW) was measured and recorded immediately before each injection and used to calculate the TUDCA or placebo dose to be administered.
Animals were 10 weeks of age at the start of the experiment (BW=32.6 g±2.6) and were on a […] from weaning that provided 60% of total energy as fat, 20% as carbohydrate, and 20% as protein (D12492 diet; Research Diets, New Brunswick, N.J.). Animals were individually housed on wire floors without bedding and maintained on a 12-hour light-dark cycle (lights on at 0700 hours) in a facility with an ambient temperature of 19-22° C.
Body weight was recorded twice a week, food intake was obtained weekly, and fasting blood glucose was measured every other week.

## C[C@H](CCC(=O)NCCS(=O)(=O)O)[C@H]1CC[C@H]2[C@@H]3[C@@H](O)C[C@@H]4C[C@H](O)CC[C@]4(C)[C@H]3CC[C@]12C [TUDCA, tauroursodeoxycholic acid]
high-fat diet, FIG. 35
  percent weight change from baseline: trend toward decreased weight
high-fat diet, not statistically significant, FIG. 34
  weight gain: trend towards decreased weight gain
FIG. 36
  weekly food intake: similar
FIG. 37
  cumulative food intake: similar
